From patent EP4737448A1, “SARM1 ENZYME ACTIVITY INHIBITOR AND USE THEREOF” (Artivila (ShenZhen) Innovation Center, Ltd., priority 2023, dated 2025)
pIC50: −log10 of the molar value.

Assays:
SARM1 = target: T1, SARM1 (Homo sapiens, UniProt Q6SZW1); experiment: In vitro biochemical assay for inhibiting SARM1 enzymatic activity (PC6 fluorescence, NAD substrate, NMN activator); details: 0.05 µg/mL SARM1, 50 µM NAD, 50 µM PC6, 50 µM NMN, 10 min pre-incubation, 30 min at room temperature
T1 construct: the inventor produces full-length SARM1 for NADase activity assays and for screening; His (C); made in house; host or cells: HEK293 cells (transient transfection; digitonin lysate supernatant, not purified further)
T1 sequence (Q6SZW1 28-724): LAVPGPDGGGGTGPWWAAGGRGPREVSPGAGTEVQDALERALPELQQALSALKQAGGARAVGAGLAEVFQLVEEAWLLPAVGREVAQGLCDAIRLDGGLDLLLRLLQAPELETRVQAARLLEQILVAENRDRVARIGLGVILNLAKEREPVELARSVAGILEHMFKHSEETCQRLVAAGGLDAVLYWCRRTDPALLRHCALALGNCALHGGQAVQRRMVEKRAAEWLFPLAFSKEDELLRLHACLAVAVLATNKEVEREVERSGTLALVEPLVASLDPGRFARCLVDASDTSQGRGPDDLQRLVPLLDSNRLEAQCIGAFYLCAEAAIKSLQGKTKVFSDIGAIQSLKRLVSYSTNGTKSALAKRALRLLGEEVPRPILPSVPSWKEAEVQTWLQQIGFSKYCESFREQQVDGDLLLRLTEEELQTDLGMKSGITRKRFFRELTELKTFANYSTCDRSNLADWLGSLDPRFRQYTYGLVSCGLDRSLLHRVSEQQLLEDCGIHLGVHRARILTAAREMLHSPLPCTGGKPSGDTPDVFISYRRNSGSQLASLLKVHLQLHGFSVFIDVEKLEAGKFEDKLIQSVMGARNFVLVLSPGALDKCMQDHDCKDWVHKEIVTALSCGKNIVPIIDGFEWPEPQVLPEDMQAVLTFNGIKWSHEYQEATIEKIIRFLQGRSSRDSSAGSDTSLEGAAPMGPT
Experimental: Compounds to be tested were stocked at 200 µM or 10 mM (in DMSO), and further diluted to the desired compound concentration for the in vitro SARM1 enzyme assay and inhibitor screening.
The gene sequence encoding SARM1 protein was amplified by PCR and the PCR amplification product was constructed into the pcDNA3.1-HIS-C plasmid. This construction was completed by YouBio Biological Technology (Hunan, China).
HEK293 cells were cultured in DMEM in a 10 cm dish. The next day, cells were transfected with 15 µg of the pcDNA3.1-SARM1-HIS-C expression plasmid.
Cells were harvested 48 hours after the transfection. The SARM1 protein expressed in cells was obtained through cell lysis by digitonin, which was used for in vitro activity assay. The specific process was as follows:
Cells were digested and detached from the dish using trypsin-EDTA, centrifuged at 1000 rpm for 5 minutes, washed once with PBS, then resuspended in PBS containing 100 µM digitonin at 0.6 mL PBS for the cells in 10 cm dish and lysed for 5 min. The cells were added with trypan blue and observed under a microscope. More than 90% of the cells were confirmed to be lysed. The cells were centrifuged at 5000 rpm for 10 min, and the supernatant containing SARM1 protein was collected.
The compound was added into a solution of 50 mM Tris-HCl (pH 7.5) containing 0.05 µg/mL SARM1 to achieve a concentration of 200 µM, and then serially diluted 6 times, where each dilution was carried out by taking half of the previous solution and adding an equal volume of 50 mM Tris-HCl (pH 7.5) containing 0.05 µg/mL SARM1, yielding a set of final concentrations of the compound of either 200, 100, 50, 25, 12.5, 6.25 and 3.125 µM, or 200, 50, 12.5, 3.125, 0.78, 0.195 and 0.049 µM. No inhibitor was added in the control group. All mixtures were incubated at room temperature for 10 min.
Subsequently, 50 µM NAD, 50 µM PC6 as substrate and 50 µM NMN as activator were added to the SARM1 protein incubated with the inhibitor and reacted for 30 min at room temperature. Wherein, the aforementioned concentrations of each component represent their respective final concentrations in the reaction system
During the reaction, the fluorescence spectrum dynamics of PC6 was detected by a microplate reader, with excitation and emission wavelengths set at 390 nm and 520 nm, respectively. The activity of the protein was expressed as the reaction rate and half maximal inhibitory concentration was calculated. The higher the reaction rate, the stronger the protein activity, and the lower the inhibitory efficiency of the compound.
Dose-response curves for inhibition of SARM1 enzymatic activity for NAD by the compounds were plotted using the above method.

[1] = tested on: axons of dorsal root ganglia explants; experiment: Wallerian degeneration assay of axon in mouse DRG explant culture; assay type: cell-based, C57BL/6 mice; details: 10 µM compound, 2 h pretreatment, 24 h post axonal transection
Experimental: Dorsal root ganglia were dissected from two-month-old male C57BL/6 mice and placed into a 35-mm culture dish containing ice-cold HBSS buffer. Extra tissue surrounding each dorsal ganglion was removed using a scalpel, and the ganglia were cut into 2-3 explant pieces. These explants were seeded into wells of a 96-well plate pre-coated with 100 ng/mL Matrigel (Corning), added with 100 µL of DRG medium (Neurobasal medium (Gibco) containing 2% B-27 (Gibco), 1% GlutaMAX (Gibco) and 10 ng/mL NGF (MCE)), and cultured in a 37°C incubator for one week. The medium was half- replaced on the fourth day and the experiments were counted on the eighth day.
Refer to methods reported in literatures in the related art (Gerdts J, Sasaki Y, Vohra B, Marasa J, Milbrandt J. Image-based screening identifies novel roles for IkappaB kinase and glycogen synthase kinase 3 in axonal degeneration. J Biol Chem. 2011 Aug 12;286(32):28011-8) for the definition and measurement principle of the degeneration index of axon. In the present disclosure, the measurement method is detaild below.
0.1 µL of 10 mM compound to be tested was added to 100 µL of DRG medium to prepare a new medium containing 10 µM compound to be tested. The medium in the 96-well plate was removed and replaced with the new medium containing the compound to be tested. Explant pieces of dorsal ganglia were incubated with compounds in a 37°C incubator for 2 h of pre-protection. Following this 2-hour pretreatment, axons were transcted near the explants tissue piece using a glass microelectrode. At 0 h and 24 h post axonal transection, brightfield images of axons in the same region were captured using a microscope (Olympus) with 20× objective. Axonal integrity was assessed using an in-house developed script. The results were categorized based on the degree of protection into: (A) >50% and (B) 20-50%.

Structure (SMILES) | pIC50 (SARM1) | Degree of protection against axonal Wallerian Degeneration [1]
O=C1N(Cc2ccc(Cl)cc2)CCN1c1ccc(-c2ccncc2)nn1 [Compound 59, 1-(4-chlorobenzyl)-3-(6-(pyridin-4-yl)pyridazin-3-yl)imidazolidin-2-one] | > 6.00 | B ((B) 20-50%)
O=C1C(Cc2ccc(C(F)(F)F)cc2)CCN1c1ccc(-c2ccncc2)nn1 (centres unmarked) [Compound 60] | > 6.00 | B ((B) 20-50%)
O=C1C(Cc2ccc(Cl)c(F)c2)CCN1c1ccc(-c2ccncc2)nn1 (centres unmarked) [Compound 62] | > 6.00 | B ((B) 20-50%)
O=C1C(Cc2ccc(Cl)nc2)CCN1c1ccc(-c2ccncc2)nn1 (centres unmarked) [Compound 64] | > 6.00 | A ((A) >50%)
O=C1C(Cc2ccccc2)CCN1c1ccc(-c2ccncc2)nn1 (centres unmarked) [Compound 65] | > 6.00 | B ((B) 20-50%)
O=C1C(Cc2ccc(Cl)s2)CCN1c1ccc(-c2ccncc2)nn1 (centres unmarked) [Compound 66] | > 6.00 | A ((A) >50%)
O=C1C(Cc2ccc(F)c(F)c2)CCN1c1ccc(-c2ccncc2)nn1 (centres unmarked) [Compound 67] | > 6.00 | A ((A) >50%)
O=C1C(Cc2ccc(Cl)cc2F)CCN1c1ccc(-c2ccncc2)nn1 (centres unmarked) [Compound 69] | > 6.00 | B ((B) 20-50%)
O=C1C(Cc2ccc(F)cc2F)CCN1c1ccc(-c2ccncc2)nn1 (centres unmarked) [Compound 70] | > 6.00 | B ((B) 20-50%)
O=C1C(Cc2cc(F)c(F)c(F)c2)CCN1c1ccc(-c2ccncc2)nn1 (centres unmarked) [Compound 71] | > 6.00 | A ((A) >50%)
O=C1C(Cc2cc(F)c(F)c(F)c2)CCN1c1ccc(-c2ccncc2)cc1 (centres unmarked) [Compound 72] | > 6.00 | A ((A) >50%)
O=C1C(Cc2ccc(Cl)cc2)CCN1c1ccc(-c2ccncc2F)nn1 (centres unmarked) [Compound 75, 3-(4-chlorobenzyl)-1-(6-(3-fluoropyridin-4-yl)pyridazin-3-yl)pyrrolidin-2-one] | > 6.00 | A ((A) >50%)
O=C1C(Cc2ccc(Cl)cc2)CCN1c1ccc(-c2ccncc2Cl)nn1 (centres unmarked) [Compound 76, 3-(4-chlorobenzyl)-1-(6-(3-chloropyridin-4-yl)pyridazin-3-yl)pyrrolidin-2-one] | > 6.00 | B ((B) 20-50%)
[2H]C(c1ccc(Cl)cc1)C1([2H])CCN(c2ccc(-c3ccncc3)cc2)C1=O (centres unmarked) [Compound 80, 3-((4-chlorophenyl)methyl-deutero)-1-(4-(pyridin-4-yl)phenyl)-3-deutero-pyrrolidin-2-one] | 5.00 to 6.00 | B ((B) 20-50%)
[2H]C1(Cc2ccc(F)c(F)c2)CCN(c2ccc(-c3ccncc3)cc2)C1=O (centres unmarked) [Compound 83, 3-(3,4-difluorobenzyl)-1-(4-(pyridin-4-yl)phenyl)-3-deutero-pyrrolidin-2-one] | > 6.00 | A ((A) >50%)
O=C1N(c2ccc(-c3ccncc3)cc2)CCC1(O)Cc1ccc(F)c(F)c1 (centres unmarked) [Compound 84, 3-(3,4-difluorobenzyl)-3-hydroxy-1-(4-(pyridin-4-yl)phenyl)pyrrolidin-2-one] | 5.00 to 6.00 | B ((B) 20-50%)
